Here are results for 14 molecules from patent US20250115569A1, “SULFONAMIDE COMPOUNDS FOR THE TREATMENT OF NEUROLOGICAL CONDITIONS” (LARIO THERAPEUTICS LIMITED, priority 2021, published 2025).

For this experiment, the system named is Human Cav2.3 channel. The experiment is described as follows: Human Cav2.3 channel calcium-influx assay. It counts as cell-based. The conditions noted are these: Fluo8 fluorescence, HEK-293 T-Rex/Kir2.1/Cav2.3e cells, without pluronic acid. A digest of the protocol: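 Signal = peak fluorescence (5–130 s) minus baseline (1–2 s), normalized to neutral (0) and inhibitor (−100) controls as % effect. Depolarization used final 20 mM KCl, 130 mM NaCl, 2 mM CaCl2, after 3 min RT compound exposure (30 μM top, half-log, 8 points, 0.3% DMSO) in doxycycline-induced HEK-293 T-Rex/Kir2.1/Cav2.3e-β4-α2δ1 cells with Fluo8 NW.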
As to `CCN([C@H](c1ccc(F)cc1)C(F)(F)F)S(=O)(=O)c1cncc(N2CCCC2)c1` [Example 98, (R)—N-ethyl-5-(pyrrolidin-1-yl)-N-(2,2,2-trifluoro-1-(4-fluorophenyl)ethyl)pyridine-3-sulfonamide], the “Cav2.3 (pIC50)” value came to 5.80.

Consider `CN([C@H](c1ccc(C(F)(F)F)cc1)C(F)(F)F)S(=O)(=O)c1ccn2ccnc2c1` [Example 236, (R)—N-methyl-N-(2,2,2-trifluoro-1-(4-(trifluoromethyl)phenyl)ethyl)imidazo[1,2-a]pyridine-7-sulfonamide], for which the “Cav2.3 (pIC50)” value was determined as 7.33.

On to `CCN([C@@H](c1cccc(F)c1)C(F)(F)F)S(=O)(=O)c1cncc(C#N)c1` [Example 112, (S)-5-cyano-N-ethyl-N-(2,2,2-trifluoro-1-(3-fluorophenyl)ethyl)pyridine-3-sulfonamide], for which the “Cav2.3 (pIC50)” value came out at 5.95.

Consider `CCN(C(c1ccc(F)cc1)C(F)(F)F)S(=O)(=O)c1ccc(C2CCOCC2)s1` (centres unmarked) [Example 88, N-ethyl-5-(tetrahydro-2H-pyran-4-yl)-N-(2,2,2-trifluoro-1-(4-fluorophenyl)ethyl)thiophene-2-sulfonamide], for which the “Cav2.3 (pIC50)” value is on record as 5.60.

Take `CN([C@H](c1ccc(F)cc1)C(F)(F)F)S(=O)(=O)c1ccc2c(c1)OC(F)(F)O2` [Example 163, (R)-2,2-difluoro-N-methyl-N-(2,2,2-trifluoro-1-(4-fluorophenyl)ethyl)benzo[d][1,3]dioxole-5-sulfonamide]: the “Cav2.3 (pIC50)” value is given as 5.76.

As for `CCN([C@H](c1ccc(F)c(F)c1)C(F)(F)F)S(=O)(=O)c1cncc(C#N)c1` [Example 250, (R)-5-cyano-N-(1-(3,4-difluorophenyl)-2,2,2-trifluoroethyl)-N-ethylpyridine-3-sulfonamide], the “Cav2.3 (pIC50)” value amounted to 7.14.

As to `CCN([C@@H](c1ccc(F)cc1)C(F)(F)F)S(=O)(=O)c1ccc(F)s1` [Example 15, (S)—N-ethyl-5-fluoro-N-(2,2,2-trifluoro-1-(4-fluorophenyl)ethyl)thiophene-2-sulfonamide], the “Cav2.3 (pIC50)” value was 4.94.

In the case of `CCN([C@H](c1ccc(F)cc1)C(F)(F)F)S(=O)(=O)c1ccc(N2CCOCC2)s1` [Example 90, (R)—N-ethyl-5-morpholino-N-(2,2,2-trifluoro-1-(4-fluorophenyl)ethyl)thiophene-2-sulfonamide], the “Cav2.3 (pIC50)” value is recorded as 6.20.

Consider `CCN(C(c1ccccc1OC)C(F)(F)F)S(=O)(=O)c1cncc(C#N)c1` (centres unmarked) [Example 107, 5-Cyano-N-ethyl-N-(2,2,2-trifluoro-1-(2-methoxyphenyl)ethyl)pyridine-3-sulfonamide], for which the “Cav2.3 (pIC50)” value turned out to be 5.08.

Take `CCN(C(c1ccc(F)cc1)C(F)(F)F)S(=O)(=O)c1cnc(C)c(C#N)c1` (centres unmarked) [Example 55, 5-cyano-N-ethyl-6-methyl-N-(2,2,2-trifluoro-1-(4-fluorophenyl)ethyl)pyridine-3-sulfonamide]: the “Cav2.3 (pIC50)” value is 6.33.

Take `CN(C)C(=O)c1ccc(S(=O)(=O)NC(c2ccc(F)cc2)C(F)(F)F)s1` (centres unmarked) [Example 24, N,N-dimethyl-5-(N-(2,2,2-trifluoro-1-(4-fluorophenyl)ethyl)sulfamoyl)thiophene-2-carboxamide]: the “Cav2.3 (pIC50)” value is listed as 4.89.

Take `CCN(C(c1ncc(C)s1)C(F)(F)F)S(=O)(=O)c1cncc(C#N)c1` (centres unmarked) [Example 264, 5-Cyano-N-ethyl-N-(2,2,2-trifluoro-1-(5-methylthiazol-2-yl)ethyl)pyridine-3-sulfonamide]: the “Cav2.3 (pIC50)” value came out at 4.96.

Turning to `CN([C@H](c1ccc(C(F)(F)F)cc1)C(F)(F)F)S(=O)(=O)c1ccn2ncnc2c1` [Example 215, (R)—N-methyl-N-(2,2,2-trifluoro-1-(4-(trifluoromethyl)phenyl)ethyl)-[1,2,4]triazolo[1,5-a]pyridine-7-sulfonamide], the “Cav2.3 (pIC50)” value is given as 7.15.

As to `CCN([C@@H](c1ccc(C)cc1)C(F)(F)F)S(=O)(=O)c1cncc(C#N)c1` [Example 105, (S)-5-Cyano-N-ethyl-N-(2,2,2-trifluoro-1-(p-tolyl)ethyl)pyridine-3-sulfonamide], the “Cav2.3 (pIC50)” value came to 5.38.
